Article PMC3111191, “Molecular Evolution of Multiple Arylalkylamine N-Acetyltransferase (AANAT) in Fish” (Marine Drugs, 2011)

What was measured:
AANAT1a = target: T1, AANAT1a (Sparus aurata, UniProt Q68SL7); experiment: radiochemical assay, inhibition of tryptamine acetylation; assay type: biochemical; settings: read-out: % inhibition at 5 mM
T1 construct: gene AANAT1

AANAT2 = AANAT2 (Sparus aurata, UniProt Q68SL6); experiment: as above; assay type: biochemical; settings: read-out: % inhibition at 50 mM
Sequence of AANAT2 (Q68SL6 1-205): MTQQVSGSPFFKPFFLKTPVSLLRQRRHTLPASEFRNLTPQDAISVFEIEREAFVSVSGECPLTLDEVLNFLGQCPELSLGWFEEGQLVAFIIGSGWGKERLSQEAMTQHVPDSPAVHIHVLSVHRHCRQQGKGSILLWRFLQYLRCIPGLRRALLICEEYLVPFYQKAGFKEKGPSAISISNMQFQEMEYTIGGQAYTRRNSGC

T1 sequence (Q68SL7 1-202): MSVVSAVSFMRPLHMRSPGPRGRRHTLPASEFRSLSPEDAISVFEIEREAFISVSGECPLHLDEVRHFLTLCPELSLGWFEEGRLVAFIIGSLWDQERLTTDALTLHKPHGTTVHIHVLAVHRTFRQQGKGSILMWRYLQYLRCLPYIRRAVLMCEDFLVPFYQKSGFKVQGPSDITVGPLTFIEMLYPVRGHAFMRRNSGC

**Q.** What does the source list for `NCCc1ccc(O)c(O)c1` [dopamine]?
**A.** inhibition at 5000 µM (AANAT1a): ~60%; inhibition at 50000 µM (AANAT2): ~60%
